Each block holds one compound with its values, some of them ahead of it.
How the values were obtained:
[1] = tested on: SH-SY5Y cells; assay: GC-MS analysis of TTA in cell medium and SH-SY5Y cells; assay type: in vitro ADME
Protocol: The GC-MS analysis was performed on treated SH-SY5Y cells and its medium prior and after treatment of TTA complexed with FBS. The technical work and analysis were performed by Pavol Bohov.
Total medium and cellular FA composition were analyzed by […] after preparation of FA methyl esters from total lipids by heating with a 1:1 mixture of methanol and toluene at 90° C. for 1 hour using sulfuric acid as a catalyst. Gas chromatograph Trace GC Ultra (Finnigan, USA) was equipped with a programmable temperature vaporization injector, flame-ionization detector, AS 2000 autosampler and with a fused silica capillary column coated with dimethylpolysiloxane stationary phase (J & W Scientific, USA). Hydrogen was used as a carrier gas. The column temperature was programmed from 110° C. to 310° C. with a gradient of 2.5° C./min.
The GC signal was acquired and evaluated with Chromeleon software version 6.80 (Dionex, USA). Peaks were identified by means of known FA standards and by means of mass spectra, obtained by GC-MS analysis (GCQ MS Detector, Finnigan, USA) on the same column.
The quantification of the FAs was based on the areas of the chromatographic peaks which were measured electronically. Subsequently, the areas were converted to weight units based on the known amount of the internal standard C21:0 which had been added to the sample. The response of the analytical procedure was determined with a mixture of pure standards (Sigma-Aldrich, USA; Supelco, USA; Larodan Fine Chemicals, Sweden).

[2] = Mildronate-induced fatty liver, liver triacylglycerol; assay type: in vivo; details: C57BL/6 mice; Mildronate 550 mg/kg body weight in low-fat diet; 3 weeks
Protocol: C57BL/6 mice were divided in 4 groups of 10 mice and fed a control low-fat diet, low-fat diets with TTA (720 mg/kg body weight), Mildronate (550 mg/kg body weight) or a combination of these two treatments for 3 weeks (n=10). At sacrifice, liver samples were collected, lipids were extracted, and triacylglycerol (TAG) measured on the Hitachi 917 system (Roche Diagnostics, GmbH, Mannheim, Germany) using a kit from Roche Diagnostics.

[3] = tested on: HCC827 cells; assay: Mitochondria respiration assay (OCR, extracellular flux) in HCC827 cells; assay type: cell-based; details: compared to control
Protocol: (§1) Non-small cell lung cancer cells, HCC827 (ATCC) were cultured in RPMI-1640 Glutamax medium (Sigma-Aldrich St. Louis, Mo., USA), under conventional culture conditions. Media was supplemented with 10% Fetal Bovine Serum (FBS), 1% glutamine and 1% streptomycin/penicillin (Sigma-Aldrich). HeLaNRF1/c4 reporter cells were cultured in Dulbecco's Modified Eagle's Medium (DMEM) supplemented with 10% FBS, 2 mM L-Glutamine, 100 u/ml penicillin/streptomycin (Sigma-Aldrich,). Incubation was done at 37° C. in 5% CO2.
Mitochondria function was analyzed by measuring oxygen consumption rate (OCR) by extracellular flux analysis in a Seahorse XFe96 instrument (Agilent Seahorse XF Technologies). The measurements were performed in DADA basic media without phenol red, supplemented with L-glutamine (2 mM), pyruvate (2 mM), and sodium chloride, NaCl (32 mM) (Sigma-Aldrich). Respiratory rates were measured following sequential additions of glucose (10 mM), oligomycin, carbonyl cyanide m-chlorophenyl hydrazine (CCCP) and a mixture of rotenone (1 μM) and antimycin A (1 μM). Before carrying out the measurements for each cell model, optimizations were done for; cell number, CCCP, and oligomycin concentrations. For the HCC 827 cell model optimal conditions were; 30,000 cells/well, 0.5 μM CCCP, and 3 μM Oligomycin; and in HeLaNRF1/c4 reporter cell model; 20,000 cells/well, 1 μM CCCP and 3 μM Oligomycin. The OCR measured initially (before any additions) represented the rate ‘basal respiration.’ The addition of ATP synthase inhibitor oligomycin provided oxygen consumption independent of ATP production (‘leak activity’). Maximal respiration (also referred to as ‘respiratory capacity’) was measured upon addition of the uncoupler CCCP. […] After the extracellular flux analysis the analysis plates were washed with Phosphate Buffered Saline (PBS) and frozen at −80° C. The BCA assay (Pierce BCA protein assay kit, Thermo Fisher Scientific, Waltham, Mass. USA) was employed to measure the protein content in the wells. To evaluate the effects of the different treatments, the respiratory rates from compound-treated wells were normalized to protein content, and calculated as percentage of the average respiratory rate of the DMSO-treated control wells. All treatments were performed with 6-8 replicate wells.

[4] = tested on: HeLaNRF1/c4 reporter cells; assay: NRF1-regulated mitochondrial biogenesis, GFP reporter by flow cytometry; assay type: cell-based; details: 5 days; AICAR 250 μM or 500 μM, resveratrol 25 uM, test compounds 30 μM and 60 μM
Protocol: The HeLaNRF1/c4 reporter cells were employed to investigate effects of the modified fatty acids on NRF1-regulated mitochondrial biogenesis. The cells (250,000) were seeded in T75 flasks and incubated for 3 hours to allow attachment. The compounds were dissolved in DMSO and diluted in culture medium to provide the final concentration. DMSO at a concentration equivalent to the highest compound concentration was added to control cultures. Resveratrol and AICAR were used as positive controls. Resveratrol has not previously been tested in this reporter model, but we found it relevant to include it for purposes of experimental and mechanistic comparisons. After 3 days of treatment the media was replaced with fresh media containing the corresponding compound. On day 5, the cells were harvested and the cultures split into three fractions: One fraction was used for detection of mitoGFP expression by flow cytometry, to assess effects on NRF-1 regulated mitochondrial biogenesis. Flow cytometry analysis was performed as previously described. Another fraction was used for extraction of RNA and subsequent gene expression analysis using quantitative PCR (see below). The last fraction was employed to investigate effects on mitochondrial respiratory function by extracellular flux analysis (described above). The experiment was replicated three times. […]

[5] = tested on: HeLaNRF1/c4 reporter cells; assay: Gene expression (qPCR) in HeLaNRF1/c4 reporter cells; assay type: cell-based; details: long-term treatment, vs control
Protocol: The HeLaNRF1/c4 reporter cells were employed to investigate effects of the modified fatty acids on NRF1-regulated mitochondrial biogenesis. The cells (250,000) were seeded in T75 flasks and incubated for 3 hours to allow attachment. The compounds were dissolved in DMSO and diluted in culture medium to provide the final concentration. DMSO at a concentration equivalent to the highest compound concentration was added to control cultures. Resveratrol and AICAR were used as positive controls. Resveratrol has not previously been tested in this reporter model, but we found it relevant to include it for purposes of experimental and mechanistic comparisons. After 3 days of treatment the media was replaced with fresh media containing the corresponding compound. On day 5, the cells were harvested and the cultures split into three fractions: One fraction was used for detection of mitoGFP expression by flow cytometry, to assess effects on NRF-1 regulated mitochondrial biogenesis. Flow cytometry analysis was performed as previously described. Another fraction was used for extraction of RNA and subsequent gene expression analysis using quantitative PCR (see below). The last fraction was employed to investigate effects on mitochondrial respiratory function by extracellular flux analysis (described above). The experiment was replicated three times.
Total RNA was extracted from harvested cells (RNAeasy kit Qiagen, Hilden, Germany). The RNA content was quantified on Nanodrop 1000 Spectrophotometer (Thermo Scientific). From 1 μg total RNA, cDNA was synthesized using High-Capacity Reverse Transcription Kit (Applied Biosystems, Carlsbad, Calif., US). Gene quantification was done using TaqMan probes for gene expression assays (Applied Biosystems). Probes used were: PGC1α (PPARG coactivator 1α), Hs00173304_m1; HIF1α (hypoxia inducible factor 1α), Hs00153153_m1; PDK1 (pyruvate dehydrogenase kinase 1), Hs01561847_m1; PDK4, (pyruvate dehydrogenase kinase 4), Hs01037712_m1; SIRT4 (sirtuin 4) Hs01015516_g1; ACOX1 (acyl-CoA oxidase 1) Hs01074241_m1; as reference genes, we used; Eukaryotic 18S rRNA Hs99999901_s1; actin beta Hs99999903_m1. Fold change was calculated as geometric mean of ΔΔCt of the two reference genes.

[6] = tested on: HeLaNRF1/c4 reporter cells; assay: Resazurin conversion assay in HeLaNRF1/c4 reporter cells; assay type: cell-based; details: test compounds 30 μM and 60 μM, long treatment
Protocol: as §1
Cell viability/proliferation was determined by the resazurin conversion assay. A total of 4000 cells were seeded in each of the 96-well plates in 100 μl of medium. After 3 hours of incubation, 100 μl of fresh medium with respective concentration of the desired compound or controls were added. Resazurin solution (Sigma-Aldrich) was added (10%, v/v in PBS) after 1 or 3 day treatment, followed by 3 hour incubation at 37° C. and 5% CO2. Resazurin fluorescence (excitation, 540 nm; emission, 590 nm) was measured and measurements were corrected for background signals. […] Relative viability was calculated from percent fluorescence relative to DMSO-treated control wells.
In order to investigate if some of the compounds induce metabolic adaptations involving mitochondrial biogenesis, we employed the HeLaNRF1/c4 reporter cells in which activation of the transcription factor NRF1 triggers expression of GFP. Since adaptations of mitochondrial biogenesis are known to require some days to develop, we used a relatively low dosage (30 μM and 60 μM) of the compounds, to allow longer treatment period compared to the previous short term experiments.

[7] = tested on: HeLaNRF1/c4 reporter cells; assay: Mitochondria respiration assay (OCR) in HeLaNRF1/c4 reporter cells after 5 days; assay type: cell-based
Protocol: Mitochondria function was analyzed by measuring oxygen consumption rate (OCR) by extracellular flux analysis in a Seahorse XFe96 instrument (Agilent Seahorse XF Technologies). The measurements were performed in DADA basic media without phenol red, supplemented with L-glutamine (2 mM), pyruvate (2 mM), and sodium chloride, NaCl (32 mM) (Sigma-Aldrich). Respiratory rates were measured following sequential additions of glucose (10 mM), oligomycin, carbonyl cyanide m-chlorophenyl hydrazine (CCCP) and a mixture of rotenone (1 μM) and antimycin A (1 μM). Before carrying out the measurements for each cell model, optimizations were done for; cell number, CCCP, and oligomycin concentrations. […] The OCR measured initially (before any additions) represented the rate ‘basal respiration.’ The addition of ATP synthase inhibitor oligomycin provided oxygen consumption independent of ATP production (‘leak activity’). Maximal respiration (also referred to as ‘respiratory capacity’) was measured upon addition of the uncoupler CCCP. […] To evaluate the effects of the different treatments, the respiratory rates from compound-treated wells were normalized to protein content, and calculated as percentage of the average respiratory rate of the DMSO-treated control wells. […]

[8] = inside SH-SY5Y cells after 24 hours

- Medium 24 h, weight percent of total FA ([1]; cell medium after 24 hours): (0.18%)
- Medium 24 h, concentration ([1]; cell medium after 24 hours incubation with SH-SY5Y cells): 0.53 µM
- Cells 24 h, concentration [1, 8]: 0.017 µM
- Cells 24 h, weight percent of total FA [1, 8]: (0.19%)
SMILES: CCCCCCCC=CCCCCCSCC(=O)O [TTA: 1n-8]

- increase in liver triacylglycerol (TAG) [2]: 7 fold
SMILES: C[N+](C)(C)NCCC(=O)[O-] [Mildronate, 3-(2,2,2-trimethylhydrazinium)propionate]

SMILES: NC(=O)c1ncn([C@@H]2O[C@H](CO)[C@@H](O)[C@H]2O)c1N [AICAR, 5-aminoimidazole-4-carboxamide-1-β-D-ribofuranoside, reference compound]
- basal respiratory rate (OCR) [3]: little or no effect
- GFP intensity (NRF1 reporter) [4]: significant increase
- PGC1α expression [5]: reduced PGC1α expression
- resazurin conversion [6]: moderate reduction
- basal respiratory rate [7]: without affecting the basal respiratory rate
- uncoupled respiratory capacity (CCCP) [7]: only increased in the AICAR-treated cells

Source: patent US20220249525A1, “Fatty Acid Compounds for Prevention and Treatment of Neurodegenerative Disorders” (T OMEGA AS, priority 2019, published 2022)
